Counter-ions that a name gives are not always drawn.
Assays:
Format in all cases: biochemical
[1] = molecular target: Human Thrombin (Homo sapiens, UniProt P00734); assay: Inhibition of amidase activity of thrombin (Kass); conditions: mean over a range of concentrations; […]
[2] = molecular target: T1, factor Xa (Homo sapiens, UniProt P00742); assay: Kass with factor Xa, chromogenic substrate; conditions: substrate N-Benzoyl-Ile-Glu-Gly-Arg-p-nitroanilide
T1 construct: Human factors X, Xa, IXa, XIa, and XIIa are purchased; purchased Enzyme Research Laboratories, South Bend, Ind
T1 sequence (P00742 235-488 limits assumed): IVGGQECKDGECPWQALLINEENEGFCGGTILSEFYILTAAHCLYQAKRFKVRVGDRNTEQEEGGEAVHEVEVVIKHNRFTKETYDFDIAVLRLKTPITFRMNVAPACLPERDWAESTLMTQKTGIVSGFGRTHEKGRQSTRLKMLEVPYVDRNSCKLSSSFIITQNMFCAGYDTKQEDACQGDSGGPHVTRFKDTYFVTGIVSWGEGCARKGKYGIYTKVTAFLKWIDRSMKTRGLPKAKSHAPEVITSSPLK
T1 sequence (P00742 41-179 partner limits assumed): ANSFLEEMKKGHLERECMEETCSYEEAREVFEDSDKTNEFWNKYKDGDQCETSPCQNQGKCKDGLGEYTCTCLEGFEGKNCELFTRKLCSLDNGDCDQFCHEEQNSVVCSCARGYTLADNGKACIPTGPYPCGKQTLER

[3] = molecular target: T2, Bovine trypsin (Bos taurus, UniProt P00760); assay: Kass with trypsin, chromogenic substrate; conditions: substrate N-Benzoyl-Phe-Val-Arg-p-nitroanilide
T2 construct: Bovine trypsin is purchased; purchased Worthington Biochemicals, Freehold, N.J
T2 sequence (P00760 24-246): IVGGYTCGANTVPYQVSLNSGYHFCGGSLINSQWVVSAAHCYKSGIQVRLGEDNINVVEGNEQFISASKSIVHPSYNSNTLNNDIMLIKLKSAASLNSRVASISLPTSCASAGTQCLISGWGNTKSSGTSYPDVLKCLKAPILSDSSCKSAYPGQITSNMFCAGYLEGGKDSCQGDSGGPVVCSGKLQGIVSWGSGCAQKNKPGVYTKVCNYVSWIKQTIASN

[4] = molecular target: T3, Human plasmin (Homo sapiens, UniProt P00747); assay: Kass with plasmin, chromogenic substrate; conditions: substrate H-D-Val-Leu-Lys-p-nitroanilide
T3 construct: Human plasmin is purchased; purchased Boehringer Mannheim, Indianapolis, Ind
T3 sequence (P00747 97-810): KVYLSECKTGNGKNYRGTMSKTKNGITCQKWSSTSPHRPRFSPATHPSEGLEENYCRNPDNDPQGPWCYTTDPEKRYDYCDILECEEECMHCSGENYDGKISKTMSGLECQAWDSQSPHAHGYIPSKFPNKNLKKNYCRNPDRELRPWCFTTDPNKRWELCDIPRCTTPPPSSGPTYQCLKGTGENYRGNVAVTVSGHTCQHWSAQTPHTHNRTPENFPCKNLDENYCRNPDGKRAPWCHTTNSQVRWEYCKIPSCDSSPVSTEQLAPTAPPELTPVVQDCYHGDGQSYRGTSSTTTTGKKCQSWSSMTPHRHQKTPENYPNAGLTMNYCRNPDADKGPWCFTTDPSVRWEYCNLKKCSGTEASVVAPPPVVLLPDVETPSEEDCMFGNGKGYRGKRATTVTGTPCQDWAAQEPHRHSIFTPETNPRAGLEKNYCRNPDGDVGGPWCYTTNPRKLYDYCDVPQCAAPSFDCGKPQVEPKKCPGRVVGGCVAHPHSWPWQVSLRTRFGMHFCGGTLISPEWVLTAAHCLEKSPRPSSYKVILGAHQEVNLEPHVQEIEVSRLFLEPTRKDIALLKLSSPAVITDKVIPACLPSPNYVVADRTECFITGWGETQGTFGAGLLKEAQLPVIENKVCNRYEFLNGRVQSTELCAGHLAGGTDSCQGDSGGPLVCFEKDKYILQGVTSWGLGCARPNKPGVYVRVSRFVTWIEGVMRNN
T3 sequence (P00747 97-580 partner limits assumed): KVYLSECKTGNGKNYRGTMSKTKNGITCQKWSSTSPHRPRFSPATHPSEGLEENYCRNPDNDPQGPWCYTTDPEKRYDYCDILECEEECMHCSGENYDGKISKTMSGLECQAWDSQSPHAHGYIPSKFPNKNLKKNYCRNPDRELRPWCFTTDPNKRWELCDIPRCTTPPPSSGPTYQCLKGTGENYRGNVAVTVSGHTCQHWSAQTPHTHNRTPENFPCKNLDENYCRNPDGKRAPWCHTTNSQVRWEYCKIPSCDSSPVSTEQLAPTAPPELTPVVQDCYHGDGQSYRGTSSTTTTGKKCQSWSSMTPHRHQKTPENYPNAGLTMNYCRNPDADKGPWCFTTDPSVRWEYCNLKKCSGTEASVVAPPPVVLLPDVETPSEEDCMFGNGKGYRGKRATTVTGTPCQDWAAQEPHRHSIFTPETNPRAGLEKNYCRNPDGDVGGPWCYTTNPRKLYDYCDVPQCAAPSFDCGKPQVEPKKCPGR

[5] = molecular target: T4, t-PA (Homo sapiens, UniProt P00750); assay: Kass with t-PA, chromogenic substrate; conditions: substrate H-D-Ile-Pro-Arg-p-nitroanilide
T4 construct: purchased American Diagnostica, Greenwich, Conn
T4 sequence (P00750 36-562): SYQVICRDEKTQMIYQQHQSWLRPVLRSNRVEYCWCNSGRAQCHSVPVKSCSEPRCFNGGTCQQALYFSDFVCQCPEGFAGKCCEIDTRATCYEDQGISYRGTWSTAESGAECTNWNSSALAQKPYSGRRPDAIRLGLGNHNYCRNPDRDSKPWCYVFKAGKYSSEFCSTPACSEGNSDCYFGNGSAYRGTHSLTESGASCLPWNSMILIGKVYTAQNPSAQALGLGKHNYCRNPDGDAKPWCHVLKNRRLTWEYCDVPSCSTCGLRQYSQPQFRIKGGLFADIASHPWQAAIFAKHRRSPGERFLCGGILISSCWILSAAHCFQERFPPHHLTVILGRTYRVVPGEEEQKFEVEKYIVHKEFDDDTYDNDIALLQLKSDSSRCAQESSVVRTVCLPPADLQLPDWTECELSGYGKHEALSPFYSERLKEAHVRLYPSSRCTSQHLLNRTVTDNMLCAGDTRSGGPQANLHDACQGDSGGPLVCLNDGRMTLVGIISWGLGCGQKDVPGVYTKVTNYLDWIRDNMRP
Experimental: By substantially following the procedures described above for human thrombin, and using other human blood coagulation system serine proteases and proteases of the fibrinolytic system with the appropriate chromogenic substrates, identified below, selectivity of the compounds of the present invention with respect to the coagulation factor serine proteases and with respect to the fibrinolytic system serine proteases are evaluated as well as their substantial lack of interference with serine proteases of the fibrinolytic system. Thrombin inhibitors preferably should spare fibrinolysis induced by urokinase, tissue plasminogen activator (t-PA) and streptokinase. This would be important to the therapeutic use of such agents as an adjunct to streptokinase, t-PA or urokinase thrombolytic therapy and to the use of such agents as an endogenous fibrinolysis-sparing (with respect to t-PA and urokinase) antithrombotic agent. In addition to the lack of interference with the amidase activity of the fibrinolytic proteases, such fibrinolytic system sparing can be studied by the use of human plasma clots and their lysis by the respective fibrinolytic plasminogen activators.
Human plasmin is purchased from Boehringer Mannheim, Indianapolis, Ind.; nt-PA is purchased as single chain activity reference from American Diagnostica, Greenwich, Conn. modified-t-PA6 (mt-PA6) is prepared at Eli Lilly and Company by procedure known in the art (See, Burck, et al., J. Biol. Chem., 265, […] (1990). Plasmin chromogenic substrate H-D-Val-Leu-Lys-p-nitroanilide and tissue plasminogen activator (t-PA) substrate H-D-Ile-Pro-Arg-p-nitroanilide are purchased from Kabi Vitrum, Stockholm, Sweden.

[6] = tested on: Human plasma; assay: Human plasma anticoagulation, thrombin time (TT); conditions: concentration required to double the thrombin time, linear extrapolation
Summary of the method: (§1)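 Test compounds are added to human plasma at many concentrations. Clotting is then initiated by reagent (Thromboplastin-C for PT; Actin for 120 s followed by 0.02M calcium chloride for APTT; 10 NIH units/mL bovine thrombin for TT) and timed instrumentally. The concentration giving twofold prolongation is derived by linear extrapolation.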

[7] = tested on: Human plasma; assay: Human plasma anticoagulation, activated partial thromboplastin time (APTT); conditions: concentration required to double the APTT, linear extrapolation
Summary of the method: as §1

[8] = tested on: Human plasma; assay: Human plasma anticoagulation, prothrombin time (PT); conditions: concentration required to double the PT, linear extrapolation
Summary of the method: as §1

Compound	Kass Human Thrombin [1]	Kass Xa [2]	Kass Trypsin [3]	Kass Plasmin [4]	Kass t-PA [5]	Human Plasma Anticoagulation 2× Clotting time TT [6]	Human Plasma Anticoagulation 2× Clotting time APTT [7]	Human Plasma Anticoagulation 2× Clotting time PT [8]
N=C(N)c1cccc(CCNC(=O)[C@@H]2CCCN2C(=O)[C@@H]2NCC[C@@H]3CCCC[C@@H]32)c1 [Example 29, 1-Piq-Pro-m-NHCH2 CH2 --C6 H4 C(=NH)NH2.2HCl]	0.76 × 10^6 (L/mole)	0.02 × 10^6 (L/mole)	0.02 × 10^6 (L/mole)	< 0.001 × 10^6 (L/mole)	< 0.001 × 10^6 (L/mole)	750 ng/mL	9,800 ng/mL	15,800 ng/mL
CCS(=O)(=O)N[C@H](Cc1ccccc1)C(=O)N1CCC[C@H]1C(=O)NCCCc1ccc(C(=N)N)cc1 [Example 30, EtSO2 -D-Phe-Pro-p-NHCH2 CH2 CH2 --C6 H4 C(=NH)NH2.HCl]	0.55 × 10^6 (L/mole)	0.02 × 10^6 (L/mole)	0.03 × 10^6 (L/mole)	< 0.001 × 10^6 (L/mole)	< 0.001 × 10^6 (L/mole)	1,000 ng/mL	14,000 ng/mL	14,400 ng/mL
CCS(=O)(=O)N[C@H](Cc1ccccc1)C(=O)N1CCC[C@H]1C(=O)NCCCc1cccc(C(=N)N)c1 [Example 31, EtSO2 -D-Phe-Pro-m-NHCH2 CH2 CH2 --C6 H4 C(=NH)NH2.HCl]	0.07 × 10^6 (L/mole)	0.14 × 10^6 (L/mole)	0.05 × 10^6 (L/mole)	< 0.001 × 10^6 (L/mole)	< 0.001 × 10^6 (L/mole)	10,800 ng/mL	34,500 ng/mL	30,000 ng/mL
N=C(N)c1cccc(CCCNC(=O)[C@@H]2CCCN2C(=O)[C@@H]2NCC[C@@H]3CCCC[C@@H]32)c1 [Example 33, 1-Piq-Pro-m-NHCH2 CH2 CH2 --C6 H4 C(=NH)NH2.HCl]	0.04 × 10^6 (L/mole)	0.04 × 10^6 (L/mole)	0.02 × 10^6 (L/mole)	< 0.001 × 10^6 (L/mole)	< 0.001 × 10^6 (L/mole)	18,900 ng/mL	59,300 ng/mL	70,900 ng/mL
CCS(=O)(=O)N[C@H](Cc1ccccc1)C(=O)N1CCC[C@H]1C(=O)NCCc1ccc(NC(=N)N)cc1 [Example 35, EtSO2 -D-Phe-Pro-p-NHCH2 CH2 C6 H4 CNH(NH)NH2.HCl]	0.09 × 10^6 (L/mole)	< 0.001 × 10^6 (L/mole)	0.04 × 10^6 (L/mole)	< 0.001 × 10^6 (L/mole)	< 0.001 × 10^6 (L/mole)	4,500 ng/mL	50,400 ng/mL	78,400 ng/mL
CCS(=O)(=O)N[C@H](Cc1ccccc1)C(=O)N1CCC[C@H]1C(=O)NCc1cccc(NC(=N)N)c1 [Example 36, EtSO2 -D-Phe-Pro-m-NHCH2 C6 H4 NHC(NH)NH2.HCl]	0.06 × 10^6 (L/mole)	< 0.001 × 10^6 (L/mole)	0.01 × 10^6 (L/mole)	< 0.001 × 10^6 (L/mole)	< 0.001 × 10^6 (L/mole)	7,700 ng/mL	> 91,000 ng/mL	> 91,000 ng/mL
N=C(N)c1ccc(CNC(=O)[C@@H]2CCCN2C(=O)[C@@H](CC2CCCCC2)NCC(=O)O)cc1 [Example 48, HOOCCH2 -D-Cha-Pro-p-NHCH2 C6 H4 C(NH)NH2.HCl]	4,100 × 10^6 (L/mole)	5.5 × 10^6 (L/mole)	250 × 10^6 (L/mole)	0.43 × 10^6 (L/mole)	0.05 × 10^6 (L/mole)	2 ng/mL	33 ng/mL	59 ng/mL
O=C(O)CN[C@H](CC1CCCCC1)C(=O)N1CCC[C@H]1C(=O)NCC1CCNCC1 [Example 53, HO2 CCH2 -D-Cha-Pro-4-NHCH2 -piperidine.HCl]	0.36 × 10^6 (L/mole)	< 0.001 × 10^6 (L/mole)	0.1 × 10^6 (L/mole)	< 0.001 × 10^6 (L/mole)	< 0.001 × 10^6 (L/mole)	1,400 ng/mL	33,800 ng/mL	34,500 ng/mL
O=C(O)CN[C@H](CC1CCCCC1)C(=O)N1CCC[C@H]1C(=O)NCCC1CCNCC1 [Example 54, HO2 CCH2 -D-Cha-Pro-4-NHCH2 CH2 -piperidine.HCl]	2.8 × 10^6 (L/mole)	< 0.001 × 10^6 (L/mole)	0.52 × 10^6 (L/mole)	0.01 × 10^6 (L/mole)	< 0.001 × 10^6 (L/mole)	140 ng/mL	3,300 ng/mL	2,200 ng/mL
O=C(O)CN[C@H](CC1CCCCC1)C(=O)N1CCC[C@H]1C(=O)NCCCC1CCNCC1 [Example 55, HO2 CCH2 -D-Cha-Pro-4-NHCH2 CH2 CH2 -piperidine.HCl]	0.01 × 10^6 (L/mole)	< 0.001 × 10^6 (L/mole)	0.01 × 10^6 (L/mole)	< 0.001 × 10^6 (L/mole)	< 0.001 × 10^6 (L/mole)	55,800 ng/mL	> 91,000 ng/mL	> 91,000 ng/mL

— US5707966A, “Antithrombotic agents” (Eli Lilly and Company, priority 1995, dated 1998)
